Measurements from patent US20210403435A1, “HERBICIDAL COMPOUNDS” (SYNGENTA CROP PROTECTION AG, priority 2018, published 2021).

Legend:
Test in all cases: Post-emergence efficacy, glasshouse, evaluated after 13 days
Assay type in all cases: in vivo
[1] = test system: Amaranthus palmeri (AMAPA); details: post-emergence application, 500 g/Ha, evaluated after 13 days; for pest or weed control at 500 g/ha: Amaranthus palmeri, 312 h, read-out: Control of weed species AMAPA (100=total damage to plant; 0=no damage to plant)
Method in brief: (§1)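 After 14 days' growth in pots, plants were treated by spray with compound diluted from a 50 g/l IF50 stock concentrate into 0.25% or 1% Empicol ESC70 + 1% ammonium sulphate. Thirteen days later, injury was scored 0–100.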

[2] = test system: Digitaria sanguinalis (DIGSA); details: post-emergence application, 500 g/Ha, evaluated after 13 days; for pest or weed control at 500 g/ha: Digitaria sanguinalis, 312 h, read-out: Control of weed species DIGSA (100=total damage to plant; 0=no damage to plant)
Method in brief: as §1

Setaria faberi (SETFA) = details: post-emergence application, 500 g/Ha, evaluated after 13 days; for pest or weed control at 500 g/ha: Setaria faberi, 312 h, read-out: Control of weed species SETFA (100=total damage to plant; 0=no damage to plant)
Method in brief: as §1

Eleusine indica (ELEIN) = details: post-emergence application, 500 g/Ha, evaluated after 13 days; for pest or weed control at 500 g/ha: Eleusine indica, 312 h, read-out: Control of weed species ELEIN (100=total damage to plant; 0=no damage to plant)
Method in brief: as §1

[3] = test system: Echinochloa crus-galli (ECHCG); details: post-emergence application, 500 g/Ha, evaluated after 13 days; for pest or weed control at 500 g/ha: Echinochloa crus-galli, 312 h, read-out: Control of weed species ECHCG (100=total damage to plant; 0=no damage to plant)
Method in brief: as §1

Lolium perenne (LOLPE) = details: post-emergence application, 500 g/Ha, evaluated after 13 days; for pest or weed control at 500 g/ha: Lolium perenne, 312 h, read-out: Control of weed species LOLPE (100=total damage to plant; 0=no damage to plant)
Method in brief: as §1

[4] = test system: Euphorbia heterophylla (EPHHL); details: post-emergence application, 500 g/Ha, evaluated after 13 days; for pest or weed control at 500 g/ha: Euphorbia heterophylla, 312 h, read-out: Control of weed species EPHHL (100=total damage to plant; 0=no damage to plant)
Method in brief: as §1

[5] = test system: Chenopodium album (CHEAL); details: post-emergence application, 500 g/Ha, evaluated after 13 days; for pest or weed control at 500 g/ha: Chenopodium album, 312 h, read-out: Control of weed species CHEAL (100=total damage to plant; 0=no damage to plant)
Method in brief: as §1

[6] = test system: Ipomoea hederacea (IPOHE); details: post-emergence application, 500 g/Ha, evaluated after 13 days; for pest or weed control at 500 g/ha: Ipomoea hederacea, 312 h, read-out: Control of weed species IPOHE (100=total damage to plant; 0=no damage to plant)
Method in brief: as §1

Row | Compound | pest or weed control at 500 g/ha [1] [%] | pest or weed control at 500 g/ha [2] [%] | pest or weed control at 500 g/ha (Setaria faberi (SETFA)) [%] | pest or weed control at 500 g/ha (Eleusine indica (ELEIN)) [%] | pest or weed control at 500 g/ha [3] [%] | pest or weed control at 500 g/ha (Lolium perenne (LOLPE)) [%] | pest or weed control at 500 g/ha [4] [%] | pest or weed control at 500 g/ha [5] [%] | pest or weed control at 500 g/ha [6] [%] | Control of weed species AMAPA (100=total damage to plant; 0=no damage to plant) [1] | Control of weed species DIGSA (100=total damage to plant; 0=no damage to plant) [2] | Control of weed species SETFA (100=total damage to plant; 0=no damage to plant) (Setaria faberi (SETFA)) | Control of weed species ELEIN (100=total damage to plant; 0=no damage to plant) (Eleusine indica (ELEIN)) | Control of weed species ECHCG (100=total damage to plant; 0=no damage to plant) [3] | Control of weed species LOLPE (100=total damage to plant; 0=no damage to plant) (Lolium perenne (LOLPE)) | Control of weed species EPHHL (100=total damage to plant; 0=no damage to plant) [4] | Control of weed species CHEAL (100=total damage to plant; 0=no damage to plant) [5] | Control of weed species IPOHE (100=total damage to plant; 0=no damage to plant) [6]
1 | CCC1(NC(=O)c2cc[n+](CCC(=O)O)nc2)CC1 [Compound A134] | 100 | 100 | 60 | 90 | 100 | 90 | 40 | 90 | 20 |  |  |  |  |  |  |  |  | 
2 | O=C(O)CC[n+]1ccc(C(=O)NCc2nccs2)cn1 [Compound A146] | 80 | 100 | 90 | 80 | 100 | 100 | 20 | 80 | 20 |  |  |  |  |  |  |  |  | 
3 | CNS(=O)(=O)CCNC(=O)c1cc[n+](CCC(=O)O)nc1 [Compound A111] | 100 | 100 | 100 | 100 | 90 | 70 | 90 | 90 | 40 |  |  |  |  |  |  |  |  | 
4 | C#CCCNC(=O)c1cc[n+](CCC(=O)O)nc1 [Compound A114] | 100 | 100 | 100 | 100 | 90 | 80 | 80 | 90 | 60 |  |  |  |  |  |  |  |  | 
5 | COCCNC(=O)c1cc[n+](CCNS(=O)(=O)[O-])nc1 [Compound A139] | 90 | 90 | 70 | 100 | 70 | 20 | 80 | 100 | 40 |  |  |  |  |  |  |  |  | 
6 | O=C(O)CC[n+]1ccc(C(=O)NC2CCCCC2)cn1 [Compound A59] | 70 | 60 | 30 | 20 | 20 | 20 | 10 | 50 | 20 |  |  |  |  |  |  |  |  | 
7 | COCCNC(=O)c1cc[n+](CCS(=O)(=O)[O-])nc1 [Compound A52] | 100 | 90 | 80 | 20 | 80 | 30 | 60 | 100 | 60 |  |  |  |  |  |  |  |  | 
8 | CN(C)C(=O)c1cc[n+](CCC(=O)O)nc1 [Compound A10] | 100 | 90 | 90 | 80 | 70 | 10 | 100 | 100 | 60 |  |  |  |  |  |  |  |  | 
9 | O=C(O)CC[n+]1ccc(C(=O)NCc2ccccc2)cn1 [Compound A21] | 90 | 70 | 60 | 90 | 90 | 40 | 90 | 90 | 60 |  |  |  |  |  |  |  |  | 
10 | CCNC(=O)c1cc[n+](CCCOS(=O)(=O)[O-])nc1 [Compound A83] |  |  |  |  |  |  |  |  |  | 90 | 90 | 60 | 90 | 90 | 80 | 90 | 90 | 80
11 | CS(=O)(=O)CCNC(=O)c1cc[n+](CCNS(=O)(=O)[O-])nc1 [Compound A136] | 0 | 100 | 30 | 80 | 50 | 70 | 60 | 100 | 30 |  |  |  |  |  |  |  |  | 
12 | C=CCNC(=O)c1cc[n+](CCCOS(=O)(=O)[O-])nc1 [Compound A125] | 30 | 60 | 50 | 30 | 70 | 60 | 60 | 60 | 50 |  |  |  |  |  |  |  |  | 
13 | C=CCNC(=O)c1cc[n+](CCNS(=O)(=O)[O-])nc1 [Compound A140] | 100 | 90 | 90 | 100 | 70 | 20 | 90 | 100 | 60 |  |  |  |  |  |  |  |  | 
14 | CC1(NC(=O)c2cc[n+](CCNS(=O)(=O)[O-])nc2)CC1 [Compound A99] | 50 | 100 | 90 | 70 | 60 | 40 | 40 | 40 | 30 |  |  |  |  |  |  |  |  | 
15 | O=C(O)CC[n+]1ccc(C(=O)NCc2ccccn2)cn1 [Compound A115] | 100 | 70 | 70 | 100 | 70 | 70 | 70 | 70 | 20 |  |  |  |  |  |  |  |  | 
16 | CN(CCS(C)(=O)=O)C(=O)c1cc[n+](CCC(=O)O)nc1 [Compound A135] | 80 | 90 | 100 | 40 | 60 | 70 | 80 | 60 | 30 |  |  |  |  |  |  |  |  | 
17 | C[S+]([O-])CCNC(=O)c1cc[n+](CCC(=O)O)nc1 (stereo not drawn) [Compound A103] | 90 | 90 | 100 | 90 | 80 | 40 | 50 | 90 | 50 |  |  |  |  |  |  |  |  | 
